The experiment has as its target T1, KCNQ2 potassium channels (CHO-KCNQ2 cells) (Homo sapiens, UniProt O43526).
T1 construct: expressed in transfected cells; host or cells: CHO cells stably expressing KCNQ2 (G418 selection in the culture medium)
In words: Potassium ion channel opener activity test (FDSS/μCELL detection, FluxOR thallium flux). It is filed as cell-based. Conditions: 8 concentrations 0.045-100 μM; for EC50: 3 replicate wells; for Emax: ratio at 180 s, read-out: Maximum agonistic rate (%). The method, then: Example A1 Potassium Ion Channel Opener Activity Test (FDSS/μ CELL Detection)
Cell preparation: CHO-KCNQ2 cells were cultured in a 175 cm^2 culture flask, and when the cell density grew to 60˜80%, the culture medium was removed and the cells were washed once with 7 mL PBS (Phosphate Buffered Saline), and then 3 mL of 0.25% Trypsin was added for digestion. After completion of digestion, 7 mL of culture medium (90% DMEM/F12+10% FBS+500 μg/mL G418) was added to neutralize, and centrifuged at 800 rpm for 3 min; the supernatant was aspirated, then 5 mL of culture medium was added to resuspend the cells, and the cells were counted.
Cell spreading: according to the cell counting results, the density was adjusted to 3×10^4 cells/well. After standing at room temperature for 30 minutes, the cells were placed in a CO2 incubator at 37° C. overnight, and incubated for 16-18 hours to reach a cell density of about 80%.
Fluorescent dye incubation: Cell culture solution was discarded, 80 μL/well of loading buffer was added and the cells were incubated for 60 minutes at room temperature and protected from light.
Compound incubation: Loading buffer was discarded, 80 μL/well of prepared compound solution was added, and the cells were incubated for 20 min at room temperature and protected from light.
Fluorescence data acquisition: Real-time fluorescence signal recording was performed using an FDSS/μCELL instrument with an excitation wavelength of 480 nm and an emission wavelength of 540 nm, and the signal was recorded once per second. 10 seconds of the baseline was recorded, then 20 μL/well of stimulation buffer was added, and the recording was continued until the end of 180 seconds.
20 mM stock solution of compound in DMSO was prepared, 10 μL of 20 mM compound stock solution was taken into 20 μL of DMSO solution, and a 3-fold serial dilution was performed to form 8 intermediate concentrations; then the intermediate concentrations of the compounds were taken respectively into test buffer, and a 200-fold dilution was performed to obtain the final concentration to be tested, and 80 μL was taken and added to the assay plate.
The highest test concentration was 100 μM, and there was a total of 8 concentrations, i.e., 100, 33.33, 11.11, 3.70, 1.23, 0.41, 0.137, 0.045 μM, respectively, with 3 replicate wells for each concentration.
The experimental data were analyzed by Excel 2007, GraphPad Prism 5.0 software, and the ratio of 180 s was counted to calculate the agonistic effect. The agonistic effect of the compound was calculated by the following equation:
• Environment: Temperature ˜25° C. • Reagent: FluxOR™ detection kit (Invitrogen, Cat #F0017) • The experimental data in the report must meet the following criteria: Z′ Factor>0.5 2. Results: See Table 1 for details, wherein a smaller EC50 indicates a higher activity of the corresponding compound.

T1 sequence (O43526 whole entry): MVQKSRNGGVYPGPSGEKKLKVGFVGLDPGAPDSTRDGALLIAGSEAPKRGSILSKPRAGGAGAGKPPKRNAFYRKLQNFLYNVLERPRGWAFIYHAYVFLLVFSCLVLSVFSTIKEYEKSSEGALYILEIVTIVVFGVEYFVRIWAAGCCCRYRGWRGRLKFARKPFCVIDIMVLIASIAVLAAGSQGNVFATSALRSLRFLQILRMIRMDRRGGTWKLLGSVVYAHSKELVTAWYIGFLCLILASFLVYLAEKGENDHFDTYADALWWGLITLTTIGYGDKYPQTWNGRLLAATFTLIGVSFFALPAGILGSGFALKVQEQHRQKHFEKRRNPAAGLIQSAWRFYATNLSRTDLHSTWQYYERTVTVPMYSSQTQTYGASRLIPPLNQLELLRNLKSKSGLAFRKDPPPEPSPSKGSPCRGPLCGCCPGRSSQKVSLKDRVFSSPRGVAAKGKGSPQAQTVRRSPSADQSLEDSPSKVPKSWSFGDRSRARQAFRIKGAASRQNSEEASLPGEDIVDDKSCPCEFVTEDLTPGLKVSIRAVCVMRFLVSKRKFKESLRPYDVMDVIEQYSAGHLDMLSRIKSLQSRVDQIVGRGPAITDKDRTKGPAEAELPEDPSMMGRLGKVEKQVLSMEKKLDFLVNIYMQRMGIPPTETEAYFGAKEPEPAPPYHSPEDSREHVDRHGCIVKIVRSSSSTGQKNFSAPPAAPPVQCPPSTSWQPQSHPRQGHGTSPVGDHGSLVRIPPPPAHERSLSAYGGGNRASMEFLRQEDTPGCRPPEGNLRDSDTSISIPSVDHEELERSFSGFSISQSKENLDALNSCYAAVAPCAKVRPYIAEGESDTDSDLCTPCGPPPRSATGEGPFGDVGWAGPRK

For orientation: EC50 means the concentration needed to bring the measured effect to its halfway point. A higher EC50 goes with a less potent agent. Turning to `Cc1cc(N2CCSc3ccccc3C2)cc(C)c1NC(=O)CC1(C)CC1` [Compound 3011], it took 4.3 nM to reach a half-maximal effect (EC50) and the Emax turned out to be 49.4%.

Consider `Cc1cc(N2CCc3cc(C(F)(F)F)ccc3C2)cc(C)c1NC(=O)CC1(C)CC1` [Compound 3001], for which the response was half-maximal at 86 nM (EC50) and the Emax is 45.6%.

With `Cc1cc(N2CCc3sc(F)cc3C2)cc(C)c1NC(=O)CC1(C)CC1` [Compound 3005], the half-maximal effective concentration (EC50) was determined as 110 nM and the Emax was found to be 46.7%.

On to `Cc1ccc2c(c1)OCCCN2c1cc(C)c(NC(=O)CC2(C)CC2)c(C)c1` [Compound 3009], for which the response was half-maximal at 71 nM (EC50) and the Emax is 36.1%.

In the case of `Cc1cc(N2CCOc3cc(F)ccc3C2)cc(C)c1NC(=O)CC1(C)CC1` [Compound 3008], it took 17 nM to reach a half-maximal effect (EC50) and the Emax came to 40.9%.

With `Cc1cc(N2CCCn3cccc3C2)cc(C)c1NC(=O)CC1(C)CC1` [Compound 3010], the EC50 stood at 3700 nM and the Emax was 35.3%.

In the case of `Cc1cc(N2CCn3cccc3C2)cc(C)c1NC(=O)CC1(C)CC1` [Compound 3006], the EC50 stood at 270 nM and the Emax came out at 34.9%.

On to `Cc1cc(N2CCCOc3cc(C(F)(F)F)ccc32)cc(C)c1NC(=O)CC1(C)CC1` [Compound 3004], for which a half-maximal response (EC50) required 580 nM and the Emax worked out at 17.7%.

As to `Cc1ccc2c(c1)CCCCN2c1cc(C)c(NC(=O)CC2(C)CC2)c(C)c1` [Compound 3007], the EC50 was 30 nM and the Emax stood at 41.5%.

`Cc1cc(N2CCCCc3cc(C(F)(F)F)ccc32)cc(C)c1NC(=O)CC1(C)CC1` [Compound 3002]: the EC50 was 580 nM and the Emax was 28.1%.

Regarding `Cc1cc(N2CCOc3cc(C(F)(F)F)ccc3C2)cc(C)c1NC(=O)CC1(C)CC1` [Compound 3003], the EC50 was 18 nM and the Emax worked out at 39.6%.
